These results are taken from US20190343873A1, “SEQUENCE-SELECTIVE GENE EXPRESSION REGULATORS” (KYOTO UNIVERSITY, priority 2018, published 2019).

Molecules are shown by their SMILES.

Assay [1] concerns the target T1, Nuc2 (reconstituted nucleosome with five match sequences for Bi-PIP2) / recombinant human P300 (Homo sapiens, UniProt Q09472).
T1 construct: 10 nM recombinant human P300 (amino acids 965-1810); purchased BPS Bioscience 50071
T1 sequence (Q09472 965-1810): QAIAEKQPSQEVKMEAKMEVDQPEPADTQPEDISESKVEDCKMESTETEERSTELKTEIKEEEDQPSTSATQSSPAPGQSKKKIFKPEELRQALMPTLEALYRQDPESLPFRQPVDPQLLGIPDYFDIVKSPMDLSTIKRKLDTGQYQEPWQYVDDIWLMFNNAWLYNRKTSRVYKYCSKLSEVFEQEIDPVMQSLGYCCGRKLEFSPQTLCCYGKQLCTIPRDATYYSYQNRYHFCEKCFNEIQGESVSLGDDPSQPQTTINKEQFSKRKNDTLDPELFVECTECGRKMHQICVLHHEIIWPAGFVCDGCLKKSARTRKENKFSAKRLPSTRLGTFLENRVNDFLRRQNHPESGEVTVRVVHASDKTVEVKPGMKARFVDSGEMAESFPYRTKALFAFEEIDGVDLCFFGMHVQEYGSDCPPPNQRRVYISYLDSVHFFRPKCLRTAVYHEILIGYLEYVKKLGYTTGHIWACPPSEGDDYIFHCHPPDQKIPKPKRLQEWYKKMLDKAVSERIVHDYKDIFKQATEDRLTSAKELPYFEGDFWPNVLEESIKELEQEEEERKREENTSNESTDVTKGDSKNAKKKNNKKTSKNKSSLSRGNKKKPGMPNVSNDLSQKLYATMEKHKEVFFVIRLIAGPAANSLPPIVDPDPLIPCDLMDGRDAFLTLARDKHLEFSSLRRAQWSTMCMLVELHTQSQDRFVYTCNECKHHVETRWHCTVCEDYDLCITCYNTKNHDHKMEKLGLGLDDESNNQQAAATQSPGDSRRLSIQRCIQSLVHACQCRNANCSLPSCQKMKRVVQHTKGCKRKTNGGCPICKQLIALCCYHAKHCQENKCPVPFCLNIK
Briefly: HAT reaction-in vitro ChIP-qPCR with recombinant P300, acetylation of Nuc2. The conditions noted are these: 100 nM compound, mixture of Nuc1 and Nuc2. It counts as biochemical. An excerpt: (§1) To test sequence-selective histone acetylation by Bi-PIP, a biochemical assay (HAT reaction-in vitro ChIP-qPCR) was established by combining HAT reaction followed by immunoprecipitation utilizing reconstituted nucleosomes as reported previously (Nguyen et al., Nat. Methods 2014, 11, 834-40) and quantitative polymerase chain reaction (qPCR) (FIGS. 2A to 2C).
(§2) Mononucleosomes were reconstituted utilizing a salt-dialysis method from a histone octamer and DNA templates that each have a Widom 601 nucleosome positioning sequence and five PIP-binding sequences: 5′-AACAGTCA-3′ for Bi-PIP1 and 5′-AGCCGCCA-3′ for Bi-PIP2 (FIG. 2A). Gel electrophoresis confirmed that the majority of DNA templates were successfully formed on the nucleosome. […]
(§3) To a HAT reaction (15 μL), 85 μL of an AB buffer (20 mM Tris-HCl, pH 7.5, 50 mM NaCl, 5 mM EDTA) containing 1/500 volume of anti-acetylated H3 (Abcam, ab47915) was added and rotated for 1 hour at room temperature. […] The DNA solution was diluted, and amount of the precipitated each nucleosome was measured by qPCR utilizing SYBR FAST qPCR Kit (Kapa Bioscience) on LightCycler 480 (Roche Diagnostics GmbH) (FIG. 2B). Cp values were determined by the 2nd derivative maximum method and relative […] amount was calculated by the ΔΔCp method. […]

A further assay concerns HEK293T cells. Briefly: Transcriptome analysis (microarray) of cells treated with Bi-PIPs. Type of assay: cell-based, human. The conditions noted are these: 1 μM, 15 hours; for downregulated transcripts: criteria <−2-fold change and <0.05 P value vs vehicle; for most upregulated protein-coding gene among uniquely activated transcripts: criteria >1.5- or <−1.5-fold change, FIG. 7A; for upregulated transcripts: criteria >2-fold change and <0.05 P value vs vehicle; for change in global gene expression (in words) / transcripts commonly upregulated by both Bi-PIP1 and Bi-PIP2: microarray. The procedure: Considering the fundamental role of P300/CBP as the transcriptional coactivator to activate gene expression, transcriptome analyses of total RNA extracted from cells (HEK293T cells) treated with Bi-PIPs were performed. […]
HEK293T line was purchased from ATCC and maintained in DMEM (Thermo Fisher Scientific) supplemented with 10% (v/v) fetal bovine serum (FBS, Sigma Aldrich) at 37° C. with 5% CO2. For the Bi-PIP treatment, the cells were seeded on 24 well plates (2×10^5 cells/well). After one day, 1 μM of each Bi-PIP and 4 μM of Endo-Porter (10% polyethylene glycol form, Gene Tools) were added. As a vehicle, 0.1% DMSO (v/v) was used. After 15 hours of Bi-PIP treatment, RNA was extracted using FastGene™ RNA Basic Kit (Nippon Genetics) following manufacture's instruction.
The quality of RNA was checked with Bioanalyzer (Agilent Technologies) using Agilent RNA 6000 Pico Kit (Agilent Technologies). The total RNA was processed by GeneChip WT PLUS Reagent Kit (Affymetrix) and hybridized to Human Gene 2.1 ST Array Strip (Affymetrix) using GeneChip Hybridization, Wash, and Stain Kit (Affymetrix). Fluidics and scanning were conducted in GeneAtlas System (Affymetrix) using GeneChip Hybridization, Wash, and Stain Kit (Affymetrix). Data normalization, summarization and comparison were performed using Transcriptome Analysis Console v4 (Affymetrix).

The subject of assay [2] is Nuc1 / HeLa nuclear extract. In words: HAT reaction-in vitro ChIP-qPCR with HeLa nuclear extract as HAT resource, Nuc1. It counts as biochemical, human. The note with it: 100 nM compound; HeLa nuclear extract 2% v/v; FIG. 6.
Assay [3] deals with T2, Nuc1 histones / recombinant human P300 (Homo sapiens, UniProt Q09472).
T2 construct: 10 nM recombinant human P300 (amino acids 965-1810); purchased BPS Bioscience 50071
T2 sequence (Q09472 965-1810): T1 sequence (Q09472 965-1810)
Briefly: HAT reaction followed by LC-MS/MS analysis of histone peptides. Type of assay: biochemical. The conditions noted are these: 2.5 μM vs 0 compound, Nuc1 500 nM, P300 50 nM, Ac-CoA 10 μM. As to the method: Histone acetylation with Bi-PIP was directly confirmed by mass spectrometry analysis. After HAT reaction using Nuc1 (500 nM), B PIP1 (0 or 2.5 μM), recombinant human P300 (50 nM) and Ac-CoA (10 μM), the histones were processed through propionylation of unmodified lysine, tryptic digestion, and propionylation of terminal amine. The resulting peptides were analyzed by liquid chromatography-tandem mass spectrometry (LC-MS/MS).

For assay [4], the target named is T3, Nuc1 (reconstituted nucleosome with five match sequences for Bi-PIP1) / recombinant human P300 (Homo sapiens, UniProt Q09472).
T3 construct: 10 nM recombinant human P300 (amino acids 965-1810); purchased BPS Bioscience 50071
T3 sequence (Q09472 965-1810): T1 sequence (Q09472 965-1810)
Briefly: HAT reaction-in vitro ChIP-qPCR with recombinant P300, acetylation of Nuc1. It counts as biochemical. The conditions noted are these: mixture of Nuc1 and Nuc2.
Description: as §1, §2, §3

For `Cc1noc(C)c1-c1ccc2c(c1)nc(CCc1ccc(OCCNC(=O)CCCCC(=O)NCCOCCOCC(=O)NCCOCCOCC(=O)Nc3cn(C)c(C(=O)Nc4cc(C(=O)Nc5cc(C(=O)NCCC(=O)Nc6cn(C)c(C(=O)Nc7cc(C(=O)NCCCC(=O)Nc8cc(C(=O)Nc9cc(C(=O)NCCC(=O)Nc%10cn(C)c(C(=O)Nc%11cc(C(=O)Nc%12cc(C(=O)NCCCN(C)C)n(C)c%12)n(C)c%11)n%10)n(C)c9)n(C)c8)n(C)c7)n6)n(C)c5)n(C)c4)n3)cc1)n2CCN1CCOCC1` [Bi-PIP1], the “acetylation of Nuc2 (anti-acetylated H3 ChIP-qPCR)” value in assay [1] (P300 0, 1, 3, 10, 30, 100 nM, FIG. 3) was “acetylation was not induced”. Further, in the assay on HEK293T cells, the downregulated transcripts came to 258, the “most upregulated protein-coding gene among uniquely activated transcripts” value is on record as “NTS”, the upregulated transcripts was determined as 473 and the “change in global gene expression (in words)” value is “greater transcriptome changes”. The “transcripts commonly upregulated by both Bi-PIP1 and Bi-PIP2” value with HEK293T cells was determined as 247. Further, the “acetylation of Nuc1 in nuclear extract” value in assay [2] is “enhanced acetylation of Nuc1”. Besides, in assay [3], the “acetylation in the N-terminal region of histone H4 (H4K5ac, H4K8ac, H4K12ac)” value is reported as “acetylation was promoted” and the “signal intensity of peptides containing acetyl lysine at the N-terminal tail region of H3 (H3K14ac, H3K18ac, H3K23ac, H3K27ac, H3K36ac)” value is on record as “increase in the signal intensity”. In assay [4] (100 nM compound, P300 0, 1, 3, 10, 30, 100 nM, FIG. 3), the “acetylation of Nuc1 (anti-acetylated H3 ChIP-qPCR)” value is given as “induced intensive acetylation”. In addition, the “acetylation of target nucleosome Nuc1 (anti-acetylated H3 ChIP-qPCR)” value in assay [4] (100 nM each compound, 10 nM P300 (amino acids 965-1810), FIG. 4) is “Nuc1-selective acetylation”.

In the case of `Cc1noc(C)c1-c1ccc2c(c1)nc(CCc1ccc(OCCNC(=O)CCCCC(=O)NCCOCCOCC(=O)NCCOCCOCC(=O)Nc3cn(C)c(C(=O)Nc4cn(C)c(C(=O)NCCC(=O)Nc5cn(C)c(C(=O)Nc6cn(C)c(C(=O)Nc7cc(C(=O)NCCCC(=O)Nc8cn(C)c(C(=O)Nc9cc(C(=O)NCCC(=O)Nc%10cn(C)c(C(=O)Nc%11cc(C(=O)Nc%12cc(C(=O)NCCCN(C)C)n(C)c%12)n(C)c%11)n%10)n(C)c9)n8)n(C)c7)n6)n5)n4)n3)cc1)n2CCN1CCOCC1` [Bi-PIP2], the “acetylation of Nuc2 (anti-acetylated H3 ChIP-qPCR)” value in assay [1] (10 nM P300 (amino acids 965-1810), FIG. 5) was “selective acetylation of Nuc2”. Further, in the assay on HEK293T cells, the downregulated transcripts came out at 137, the “most upregulated protein-coding gene among uniquely activated transcripts” value is “IER5L”, the upregulated transcripts came out at 446 and the “change in global gene expression (in words)” value is given as “greater transcriptome changes”. The “transcripts commonly upregulated by both Bi-PIP1 and Bi-PIP2” value in the assay with HEK293T cells turned out to be 247.
